“And” between values parts separate entries of the source, which are not always exact repeats. Equal entries are not always repeated. Where two headings read alike, the source gives them in different places.
How the values were obtained:
Format in all cases: in vivo, Helianthus annuus
[1] = test system: sunflower TH12 (Restorer Line, A122T); details: 14 DAT
Description: (§1) A greenhouse study was conducted to quantify and contrast the imazapir sensivity of the mutants A122T and A205V in different genetic backgrounds at the whole plant level in sunflower. Seeds of the different sunflower lines that were used in this study were obtained under field conditions.
(§2) Seeds were sown in Petri dishes and, after germination, plantlets were transplanted to pots of 10 cm of diameter in a potting media consisting of equal parts of vermiculite, soil and sand. Plants were grown in a greenhouse under natural light conditions supplemented with 400 W sodium halide lamps to provide a 16 hrs daylength. Day/night temperatures were 25 and 20° C., respectively. At the V2 stage 10 plants of each genotype were randomly assigned to each treatment consisting of […] imazapir doses (0, 40, 80, 160, 240, 320, 400 and 480 g ai/ha), and a zero-time biomass determination. Experiment was arranged as a randomized block design with a full factorial (sunflower line×treatment) arrangement of treatments and 10 replications.
(§3) On the day of herbicide application ten plants of each genotype were cut at the cotyledonal node and dried at 60° C. for 48 hrs zero-time for dried weight determination.
(§4) Height was determined as the distance between the cotyledonal node and the apex of each plant. For root biomass determination, each plant was taken from the pot and the potting media was washed out from the roots. Above ground biomass data from each line were converted to biomass accumulation after application by subtracting the appropriate average zero-time biomass from each sample. Dry biomass data were converted to percentages of the untreated control plants within each line to allow direct comparisons between groups. […]

[2] = test system: sunflower lines carrying the A205V mutation; details: 14 DAT; for biomass accumulation, Dif with Control / plant height, Dif with Control / root dry weight, Dif with Control: A205V mean; for biomass accumulation, Mean / root dry weight, Mean / plant height, Mean: six A205V genotypes; for Phytotoxicity Index, Mean: three A205V genotypes
Description: as §1, §2, §3, §4

[3] = test system: sunflower TH1 (Hybrid, A205V); details: 14 DAT
Description: as §1, §2, §3, §4

With `CC(C)C1(C)N=C(c2ncccc2C(=O)O)NC1=O` (stereo not shown) [imazapyr] the “Phytotoxicity Index” value ([1]; 0.5x (40 g ai/ha)) was 0.0, the “biomass accumulation (above ground dry weight)” value ([1]; 0.5x (40 g ai/ha)) was 100.0 % of untreated plots and the plant height ([1]; 0.5x (40 g ai/ha)) was 100.0 % of untreated plots. The root dry weight ([1]; 0.5x (40 g ai/ha)) was 99.4 % of untreated plots, the “Phytotoxicity Index” value ([1]; 1x (80 g ai/ha)) was 0.0 and the “biomass accumulation (above ground dry weight)” value ([1]; 1x (80 g ai/ha)) was 99.1 % of untreated plots. For the same compound, the plant height ([1]; 1x (80 g ai/ha)) was 100.0 % of untreated plots, the root dry weight ([1]; 1x (80 g ai/ha)) was 100 % of untreated plots and the “Phytotoxicity Index” value ([1]; 2x (160 g ai/ha)) was 0.0. For the same compound, the “biomass accumulation (above ground dry weight)” value ([1]; 2x (160 g ai/ha)) was 97.0 % of untreated plots, the plant height ([1]; 2x (160 g ai/ha)) was 101.8 % of untreated plots and the root dry weight ([1]; 2x (160 g ai/ha)) was 100 % of untreated plots. The “Phytotoxicity Index” value ([1]; 3x (240 g ai/ha)) was 0.0, the “biomass accumulation (above ground dry weight)” value ([1]; 3x (240 g ai/ha)) was 96.1 % of untreated plots and the plant height ([1]; 3x (240 g ai/ha)) was 97.0 % of untreated plots. For the same compound, the root dry weight ([1]; 3x (240 g ai/ha)) was 100.0 % of untreated plots, the “Phytotoxicity Index” value ([1]; 4x (320 g ai/ha)) was 0.0 and the “biomass accumulation (above ground dry weight)” value ([1]; 4x (320 g ai/ha)) was 84.3 % of untreated plots. The plant height ([1]; 4x (320 g ai/ha)) was 92.1 % of untreated plots, the root dry weight ([1]; 4x (320 g ai/ha)) was 74.5 % of untreated plots and the “Phytotoxicity Index” value ([1]; 5x (400 g ai/ha)) was 0.0. For the same compound, the “biomass accumulation (above ground dry weight)” value ([1]; 5x (400 g ai/ha)) was 77.5 % of untreated plots, the plant height ([1]; 5x (400 g ai/ha)) was 84.8 % of untreated plots and the root dry weight ([1]; 5x (400 g ai/ha)) was 65.0 % of untreated plots. For the same compound, the “Phytotoxicity Index” value ([1]; 6x (480 g ai/ha)) was 0.5, the “biomass accumulation (above ground dry weight)” value ([1]; 6x (480 g ai/ha)) was 70.7 % of untreated plots and the plant height ([1]; 6x (480 g ai/ha)) was 79.8 % of untreated plots. For the same compound, the root dry weight ([1]; 6x (480 g ai/ha)) was 57.8 % of untreated plots, the “biomass accumulation, Dif with Control” value ([2]; 0.5x (40 g ai/ha)) was 5.5 % of untreated plots and the “plant height, Dif with Control” value ([2]; 0.5x (40 g ai/ha)) was 5.6 % of untreated plots. For the same compound, the “root dry weight, Dif with Control” value ([2]; 0.5x (40 g ai/ha)) was 12.8 % of untreated plots, the “biomass accumulation, Dif with Control” value ([2]; 1x (80 g ai/ha)) was 17.8 % of untreated plots and the “plant height, Dif with Control” value ([2]; 1x (80 g ai/ha)) was 10.8 % of untreated plots. The “root dry weight, Dif with Control” value ([2]; 1x (80 g ai/ha)) was 29.2 % of untreated plots, the “biomass accumulation, Dif with Control” value ([2]; 2x (160 g ai/ha)) was 38.4 % of untreated plots and the “plant height, Dif with Control” value ([2]; 2x (160 g ai/ha)) was 30.8 % of untreated plots. The “root dry weight, Dif with Control” value ([2]; 2x (160 g ai/ha)) was 49.4 % of untreated plots, the “biomass accumulation, Dif with Control” value ([2]; 3x (240 g ai/ha)) was 52.4 % of untreated plots and the “plant height, Dif with Control” value ([2]; 3x (240 g ai/ha)) was 49.6 % of untreated plots. For the same compound, the “root dry weight, Dif with Control” value ([2]; 3x (240 g ai/ha)) was 60.8 % of untreated plots, the “biomass accumulation, Dif with Control” value ([2]; 4x (320 g ai/ha)) was 64.6 % of untreated plots and the “plant height, Dif with Control” value ([2]; 4x (320 g ai/ha)) was 66.3 % of untreated plots. For the same compound, the “root dry weight, Dif with Control” value ([2]; 4x (320 g ai/ha)) was 68.9 % of untreated plots, the “biomass accumulation, Dif with Control” value ([2]; 5x (400 g ai/ha)) was 67.6 % of untreated plots and the “plant height, Dif with Control” value ([2]; 5x (400 g ai/ha)) was 68.0 % of untreated plots. The “root dry weight, Dif with Control” value ([2]; 5x (400 g ai/ha)) was 69.3 % of untreated plots, the “biomass accumulation, Dif with Control” value ([2]; 6x (480 g ai/ha)) was 70.0 % of untreated plots and the “root dry weight, Dif with Control” value ([2]; 6x (480 g ai/ha)) was 75.6 % of untreated plots. The “plant height, Dif with Control” value ([2]; 6x (480 g ai/ha), listed as imazapir) was 68.9 % of untreated plots and 69.8 % of untreated plots, the “biomass accumulation, Mean” value ([2]; 0.5x (40 g ai/ha)) was 94.5 % of untreated plots and the “root dry weight, Mean” value ([2]; 0.5x (40 g ai/ha)) was 87.2 % of untreated plots. The “biomass accumulation, Mean” value ([2]; 1x (80 g ai/ha)) was 82.2 % of untreated plots, the “root dry weight, Mean” value ([2]; 1x (80 g ai/ha)) was 70.8 % of untreated plots and the “biomass accumulation, Mean” value ([2]; 2x (160 g ai/ha)) was 61.6 % of untreated plots. The “plant height, Mean” value ([2]; 2x (160 g ai/ha)) was 69.2 % of untreated plots, the “root dry weight, Mean” value ([2]; 2x (160 g ai/ha)) was 50.6 % of untreated plots and the “biomass accumulation, Mean” value ([2]; 3x (240 g ai/ha)) was 47.6 % of untreated plots. The “plant height, Mean” value ([2]; 3x (240 g ai/ha)) was 50.4 % of untreated plots, the “root dry weight, Mean” value ([2]; 3x (240 g ai/ha)) was 39.2 % of untreated plots and the “biomass accumulation, Mean” value ([2]; 4x (320 g ai/ha)) was 35.4 % of untreated plots. For the same compound, the “plant height, Mean” value ([2]; 4x (320 g ai/ha)) was 33.7 % of untreated plots, the “root dry weight, Mean” value ([2]; 4x (320 g ai/ha)) was 31.1 % of untreated plots and the “biomass accumulation, Mean” value ([2]; 5x (400 g ai/ha)) was 32.4 % of untreated plots. For the same compound, the “plant height, Mean” value ([2]; 5x (400 g ai/ha)) was 32.0 % of untreated plots, the “root dry weight, Mean” value ([2]; 5x (400 g ai/ha)) was 30.7 % of untreated plots and the “biomass accumulation, Mean” value ([2]; 6x (480 g ai/ha)) was 30.0 % of untreated plots. The “plant height, Mean” value ([2]; 6x (480 g ai/ha)) was 30.2 % of untreated plots, the “root dry weight, Mean” value ([2]; 6x (480 g ai/ha)) was 24.4 % of untreated plots and the “Phytotoxicity Index, Mean” value ([2]; 2x (160 g ai/ha)) was 2.2. For the same compound, the “Phytotoxicity Index, Mean” value ([2]; 3x (240 g ai/ha)) was 5.1, the “Phytotoxicity Index, Mean” value ([2]; 4x (320 g ai/ha)) was 7.4 and the “Phytotoxicity Index, Mean” value ([2]; 5x (400 g ai/ha)) was 8.2. The “Phytotoxicity Index, Mean” value ([2]; 6x (480 g ai/ha)) was 8.2, the “biomass accumulation (above ground dry weight)” value ([3]; 0.5x (40 g ai/ha)) was 95.0 % of untreated plots and the plant height ([3]; 0.5x (40 g ai/ha)) was 99.5 % of untreated plots. For the same compound, the root dry weight ([3]; 0.5x (40 g ai/ha)) was 79.4 % of untreated plots, the “biomass accumulation (above ground dry weight)” value ([3]; 1x (80 g ai/ha)) was 89.6 % of untreated plots and the plant height ([3]; 1x (80 g ai/ha)) was 99.5 % of untreated plots. The root dry weight ([3]; 1x (80 g ai/ha)) was 70.7 % of untreated plots, the “biomass accumulation (above ground dry weight)” value ([3]; 2x (160 g ai/ha)) was 75.5 % of untreated plots and the plant height ([3]; 2x (160 g ai/ha)) was 78.6 % of untreated plots. The root dry weight ([3]; 2x (160 g ai/ha)) was 69.6 % of untreated plots, the “biomass accumulation (above ground dry weight)” value ([3]; 3x (240 g ai/ha)) was 60.4 % of untreated plots and the plant height ([3]; 3x (240 g ai/ha)) was 48.4 % of untreated plots. For the same compound, the root dry weight ([3]; 3x (240 g ai/ha)) was 42.3 % of untreated plots, the “biomass accumulation (above ground dry weight)” value ([3]; 4x (320 g ai/ha)) was 48.5 % of untreated plots and the plant height ([3]; 4x (320 g ai/ha)) was 28.9 % of untreated plots. For the same compound, the root dry weight ([3]; 4x (320 g ai/ha)) was 38.6 % of untreated plots, the “biomass accumulation (above ground dry weight)” value ([3]; 5x (400 g ai/ha)) was 38.9 % of untreated plots and the plant height ([3]; 5x (400 g ai/ha)) was 25.3 % of untreated plots. For the same compound, the root dry weight ([3]; 5x (400 g ai/ha)) was 34.7 % of untreated plots, the “biomass accumulation (above ground dry weight)” value ([3]; 6x (480 g ai/ha)) was 33.9 % of untreated plots and the plant height ([3]; 6x (480 g ai/ha)) was 27.1 % of untreated plots. For the same compound, the root dry weight ([3]; 6x (480 g ai/ha)) was 23.1 % of untreated plots.

From patent US20180016593A1, “HERBICIDE-RESISTANT SUNFLOWER PLANTS, POLYNUCLEOTIDES ENCODING HERBICIDE-RESISTANT ACETOHYDROXYACID SYNTHASE LARGE SUBUNIT PROTEINS, AND METHODS OF USE” (priority 2005, published 2018)
